The text below walks through data of patent US8957077B2, “Pyrazolopyrimidine PDE 10 inhibitors” (Merck Sharp & Dohme Corp., priority 2010, dated 2015).

Molecules are shown by their SMILES.

For the assay, the target named is human PDE10A2 (Homo sapiens (Human), UniProt Q9Y233). The experiment in a line: PDE10 fluorescence polarization (IMAP FP) inhibition assay. Format: biochemical. As to conditions: human PDE10 enzyme, FAM-labeled cAMP substrate, read-out: PDE10A Ki. The protocol: The activity of the compounds in accordance with the present invention as PDE10 inhibitors may be readily determined without undue experimentation using a fluorescence polarization (FP) methodology that is well known in the art (Huang, W., et al.,J. Biomol Screen, 2002, 7: 215).
Sequence of human PDE10A2 (Q9Y233 267-1055): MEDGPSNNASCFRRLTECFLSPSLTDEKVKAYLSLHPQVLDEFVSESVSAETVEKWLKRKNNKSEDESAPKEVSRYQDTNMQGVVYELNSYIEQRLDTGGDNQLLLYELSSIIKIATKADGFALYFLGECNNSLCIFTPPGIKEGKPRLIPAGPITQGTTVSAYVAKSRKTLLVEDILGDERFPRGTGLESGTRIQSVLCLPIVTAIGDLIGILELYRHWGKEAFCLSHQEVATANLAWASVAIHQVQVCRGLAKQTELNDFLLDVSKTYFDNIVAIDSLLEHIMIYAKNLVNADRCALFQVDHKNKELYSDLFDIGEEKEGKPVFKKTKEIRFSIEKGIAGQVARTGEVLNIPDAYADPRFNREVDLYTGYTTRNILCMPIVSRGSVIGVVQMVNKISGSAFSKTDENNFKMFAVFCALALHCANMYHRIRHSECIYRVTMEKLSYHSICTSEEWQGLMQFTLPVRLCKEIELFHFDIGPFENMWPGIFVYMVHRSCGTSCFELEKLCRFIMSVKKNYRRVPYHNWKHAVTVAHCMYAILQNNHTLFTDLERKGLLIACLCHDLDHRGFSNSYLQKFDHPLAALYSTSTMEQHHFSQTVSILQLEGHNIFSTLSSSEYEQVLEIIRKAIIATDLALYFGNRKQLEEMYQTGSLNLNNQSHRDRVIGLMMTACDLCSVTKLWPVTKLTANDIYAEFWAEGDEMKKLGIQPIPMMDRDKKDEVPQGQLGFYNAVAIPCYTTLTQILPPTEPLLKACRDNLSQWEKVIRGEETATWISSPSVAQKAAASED
In a typical experiment the PDE10 inhibitory activity of the compounds of the present invention was determined in accordance with the following experimental method. PDE10A2 was amplified from human fetal brain cDNA (Clontech, Mountain View, Calif.) using a forward primer corresponding to nucleotides 56-77 of human PDE10A2 (Accession No. AF127480, Genbank Identifier 4894716), containing a Kozak consensus sequence, and a reverse primer corresponding to nucleotides 2406-2413 of human PDE10A2 (Accession No. AF127480, Genbank Identifier 4894716). Amplification with Easy-A polymerase (Stratagene, La Jolla, Calif.) was 95° C. for 2 minutes followed by thirty three cycles of 95° C. for 40 seconds, 55° C. for 30 seconds, and 72° C. for 2 minutes 48 seconds. Final extension was 72° C. for 7 minutes. The PCR product was TA cloned into pcDNA3.2-TOPO (Invitrogen, Carlsbad, Calif.) according to standard protocol. AD293 cells with 70-80% confluency were transiently transfected with human PDE10A2/pcDNA3.2-TOPO using Lipofectamine 2000 according to manufacturer specifications (Invitrogen, Carlsbad, Calif.). Cells were harvested 48 hours post-transfection and lysed by sonication (setting 3, 10×5 sec pulses) in a buffer containing 20 mM HEPES, 1 mM EDTA and protease inhibitor cocktail (Roche). Lysate was collected by centrifugation at 75,000×g for 20 minutes. Supernatant containing the cytoplasmic fraction was used for evaluation of PDE10A2 activity. The fluorescence polarization assay for cyclic nucleotide phosphodiesterases was performed using an IMAP® FP kit supplied by Molecular Devices, Sunnyvale, Calif. (product # R8139). IMAP® technology has been applied previously to phosphodiesterase assays (Huang, W., et al., J. Biomol Screen, 2002, 7: 215). Assays were performed at room temperature in 384-well microtiter plates with an incubation volume of 20.2 μL. Solutions of test compounds were prepared in DMSO and serially diluted with DMSO to yield 8 μL of each of 10 solutions differing by 3-fold in concentration, at 32 serial dilutions per plate. 100% inhibition is determined using a known PDE10 inhibitor, which can be any compound that is present at 5,000 times its Ki value in the assay described as follows, such as papaverine (see Siuciak, et al. Neuropharmacology (2006) 51:386-396; Becker, et al. Behav Brain Res (2008) 186(2):155-60; Threlfell, et al., J Pharmacol Exp Ther (2009) 328(3):785-795), 2-{-4-[pyridin-4-yl-1-(2,2,2-trifluoroethyl)-1H-pyrazol-3-yl]phenoxymethyl}quinoline succinic acid or 2-[4-(1-methyl-4-pyridin-4-yl-1H-pyrazol-3-yl)-phenoxymethyl]quinoline succinic acid (see Schmidt, et al. J Pharmacol Exp Ther (2008) 325:681-690; Threlfell, et al., J Pharmacol Exp Ther (2009) 328(3): 785-795). 0% of inhibition is determined by using DMSO (1% final concentrations).
A Labcyte Echo 555 (Labcyte, Sunnyvale, Calif.) is used to dispense […] from each well of the titration plate to the 384 well assay plate. A solution of enzyme ( 1/1600 dilution from aliquots; sufficient to produce 20% substrate conversion) and a separate solution of FAM-labeled cAMP PDE from Molecular Devices (product # R7506), at a final concentration of 50 nM are made in the assay buffer (10 mM Tris HCl, pH 7.2, 10 mM MgCl2, 0.05% NaN3 0.01% Tween-20, and 1 mM DTT). The enzyme and the substrate are then added to the assay plates in two consecutive additions of 10 μL, and then shaken to mix. The reaction is allowed to proceed at room temperature for 30 minutes. A binding solution is then made from the kit components, comprised of 80% Solution A, 20% Solution B and binding reagent at a volume of 1/600 the total binding solution. […]
For orientation: Fluorescence polarisation rises when a labelled molecule tumbles more slowly, as on binding a larger partner.
Regarding `Cc1nc(C)c(CNc2cc(C(=O)NCCc3ccccn3)nc3ccnn23)s1` [Compound 1-25, 7-((2,4-dimethylthiazol-5-yl)methylamino)-N-(2-(pyridin-2-yl)ethyl)pyrazolo [1,5-a] pyrimidine-5-earboxanaide], the Ki worked out at 1.1 nM.

For `Cc1ncc(CNc2cc(OC[C@H]3C[C@@H]3c3ccccn3)nc3ccnn23)s1` [Compound 1-4, (S,S)-N-[(2-methyl-1,3-thiazol-5-yl)-methyl]-5-{[2-(pyridin-2-yl)cyclopropyl]methoxy} pyrazolo[1,5-a]pyrimidin-7-amine], the Ki amounted to 0.11 nM.

Consider `COc1ccc(CCCCc2cc(NCc3sc(C)nc3C)n3nccc3n2)nc1` [Compound 1-10, N-[(2,4-dimethyl-1,3-thiazol-5-yl)methyl]-5-[4-(5-methoxy-pyridin-2-yl)butyl]pyrazolo [1,5-a]pyrimidin-7-amine], for which the inhibition constant (Ki) came out at 0.37 nM.

As for `Cc1nc(C)c(CNc2cc(C(=O)NC[C@H]3C[C@@H]3c3ccc4ccccc4n3)nc3ccnn23)s1` [Compound 1-23, 7-((2,4-dimethylthiazol-5-yl)methylamino)-N-(((1S,2S)-2-(quinolin-2-yl)cyclopropyl)methyl) pyrazolo[1,5-a] pyrimidine-5-carboxamide], the Ki amounted to 0.18 nM.

With `Cc1nnc(CNc2c(F)c(OC[C@H]3C[C@@H]3c3ccccn3)nc3ccnn23)s1` [Compound 1-18, 6-fluoro-N-[(5-methyl-1,3,4-thiadiazol-2-yl)methyl]-5-{[(1S,2S)-2-(pyridin-2-yl)cyclopropyl]methoxy} pyrazolo[1,5-a] pyrimidin-7-amine], the Ki was 0.08 nM.

Turning to `Cc1nc(C)c(CNc2cc(CCC#Cc3ccc4ccccc4n3)nc3ccnn23)s1` [Compound 1-15, N-[(2,4-dimethyl-1,3-thiazol-5-yl)methyl]-5-[4-(quinolin-2-yl)but-3-yn-1-yl]pyrazolo[1,5-a] pyrimidin-7-amine], the inhibition constant Ki came out at 0.14 nM.

For the compound `COc1ccc([C@H]2C[C@@H]2COc2cc(NCc3oc(C)nc3C)n3nccc3n2)nc1` (stereo in doubt) [Compound 1-3, N-[(2,4-dimethyl-1,3-oxazol-5-yl)methyl]-5-{[2-(5-methoxy-pyridin-2-yl)cyclopropyl]-methoxy}pyrazolo [1,5-a]pyrimidin-7-amine], the Ki was 1.3 nM.

For the compound `Cc1ccc([C@H]2C[C@@H]2COc2cc(Oc3ccc(C)nc3)n3nccc3n2)nc1` [Compound 1-22, 5-{[(1S,2S)-2-(5-methylpyridin-2-yl)cyclopropyl]methoxy}-7-[(6-methylpyridin-3-yl)oxy]pyrazolo[1,5-a] pyrimidine], the Ki was 20 nM.

On to `Cc1nc(C)c(CNc2cc(C3CC3)nc3ccnn23)s1` [Compound 1-9, 5-cyclopropyl-N-[(2,4-dimethyl-1,3-thiazol-5-yl)methyl]pyrazolo [1,5-a]pyrim-idin-7-amine], for which the Ki worked out at 9.2 nM.

Regarding `Cc1c(OC[C@H]2C[C@@H]2c2ccccn2)nc2ccnn2c1NCc1cnn(C)c1` [Compound 1-20, 6-methyl-N-[(1-methyl-1H-pyrazol-4-yl)methyl]-5-{[(1S,2S)-2-(pyridin-2-yl)cyclopropyl]methoxy} pyrazolo[1,5-a] pyrimidin-7-amine], the Ki turned out to be 2.52 nM.

`Cc1nc(C)c(CNc2cc(C(C)C[C@@H]3C[C@H]3c3ccccn3)nc3ccnn23)s1` (stereo in doubt) [Compound 1-13, N-[(2,4-dimethyl-1,3-thiazol-5-yl)methyl]-5-{1-[2-(pyridin-2-yl)cyclopropyl]propan-2-yl}pyrazolo[1,5-a] pyrimidin-7-amine]: the Ki was 76.9 nM.

For orientation: Ki means the dissociation constant of the complex between target and ligand, obtained from inhibition or displacement.
